Results from ChEMBL document CHEMBL1201862, “PubChem BioAssay data set” (2004).
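Tested at 5 concentrations; 48 h exposure; 96-well plates; endpoints linearly interpolated, else capped at highest concentration. GI50: concentration for 50% inhibition of growth.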 Active and inactive are the calls of the source. Rule as the data show it: active = GI50 up to about 1.1 µM and inactive = higher.

Experiments:
Assay in all cases: growth of human tumour cells (NCI), 48 h
ACHN = system: ACHN
BT-549 = system: BT-549
CAKI-1 = system: CAKI-1
CCRF-CEM = system: CCRF-CEM
DU-145 = system: DU-145
HL-60 = system: HL-60
HOP-62 = system: HOP-62
HOP-92 = system: HOP-92
K562 = system: K562
KM12 = system: KM12
LOX IMVI = system: LOX IMVI
M14 = system: M14
MDA-N = system: MDA-N
Malme-3M = system: Malme-3M
NCI-H23 = system: NCI-H23
OVCAR-5 = system: OVCAR-5
RPMI-8226 = system: RPMI-8226
SK-OV-3 = system: SK-OV-3
SR = system: SR
TK-10 = system: TK-10

NCC(O)CSP(=O)(O)O (stereo not given)
GI50 (ACHN): > 100 µM (inactive) | GI50 (BT-549): > 100 µM (inactive) | GI50 (CAKI-1): > 100 µM (inactive) | GI50 (CCRF-CEM): > 100 µM (inactive) | GI50 (DU-145): > 100 µM (inactive) | GI50 (HL-60): > 100 µM (inactive) | GI50 (HOP-62): > 100 µM (inactive) | GI50 (HOP-92): > 100 µM (inactive) | GI50 (K562): > 100 µM (inactive) | GI50 (KM12): > 100 µM (inactive) | GI50 (LOX IMVI): > 100 µM (inactive) | GI50 (M14): > 100 µM (inactive) | GI50 (MDA-N): > 100 µM (inactive) | GI50 (Malme-3M): > 100 µM (inactive) | GI50 (NCI-H23): > 100 µM (inactive) | GI50 (OVCAR-5): > 100 µM (inactive) | GI50 (RPMI-8226): > 100 µM (inactive) | GI50 (SK-OV-3): > 100 µM (inactive) | GI50 (SR): > 100 µM (inactive) | GI50 (TK-10): > 100 µM (inactive)

OCC1OC(NC(=S)NCSCCC(F)(F)C(F)(F)C(F)(F)C(F)(F)C(F)(F)C(F)(F)F)C(O)C(O)C1O (stereo not given)
GI50 (ACHN): 35.2 µM (inactive) | GI50 (BT-549): > 100 µM (inactive) | GI50 (CAKI-1): 76 µM (inactive) | GI50 (CCRF-CEM): 23.3 µM (inactive) | GI50 (DU-145): 81.8 µM (inactive) | GI50 (HL-60): 49.4 µM (inactive) | GI50 (HOP-62): 32.4 µM (inactive) | GI50 (HOP-92): 22.7 µM (inactive) | GI50 (K562): 19.9 µM (inactive) | GI50 (KM12): 38.7 µM (inactive) | GI50 (LOX IMVI): 34.4 µM (inactive) | GI50 (M14): 17 µM (inactive) | GI50 (MDA-N): 43.6 µM (inactive) | GI50 (Malme-3M): 73.8 µM (inactive) | GI50 (NCI-H23): 39.5 µM (inactive) | GI50 (OVCAR-5): 56.1 µM (inactive) | GI50 (RPMI-8226): 63.8 µM (inactive) | GI50 (SK-OV-3): 82 µM (inactive) | GI50 (SR): 49.3 µM (inactive) | GI50 (TK-10): 49.7 µM (inactive)

O=C1OC(c2ccc(O)c(-c3ccccc3)c2)(c2ccc(O)c(-c3ccccc3)c2)c2c(Cl)c(Cl)c(Cl)c(Cl)c21
GI50 (ACHN): > 100 µM (inactive) | GI50 (BT-549): > 100 µM (inactive) | GI50 (CAKI-1): > 100 µM (inactive) | GI50 (CCRF-CEM): > 100 µM (inactive) | GI50 (DU-145): > 100 µM (inactive) | GI50 (HL-60): 0.177 µM (active) | GI50 (HOP-62): > 100 µM (inactive) | GI50 (HOP-92): > 100 µM (inactive) | GI50 (K562): > 100 µM (inactive) | GI50 (KM12): > 100 µM (inactive) | GI50 (LOX IMVI): > 100 µM (inactive) | GI50 (M14): > 100 µM (inactive) | GI50 (MDA-N): > 100 µM (inactive) | GI50 (Malme-3M): > 100 µM (inactive) | GI50 (NCI-H23): > 100 µM (inactive) | GI50 (OVCAR-5): > 100 µM (inactive) | GI50 (RPMI-8226): > 100 µM (inactive) | GI50 (SK-OV-3): > 100 µM (inactive) | GI50 (SR): > 100 µM (inactive) | GI50 (TK-10): > 100 µM (inactive)

CCOC(=O)c1ccc(NC(=O)O/N=C(/Cl)C(C)C)cc1
GI50 (ACHN): 14 µM (inactive) | GI50 (BT-549): 14.9 µM (inactive) | GI50 (CAKI-1): 4.63 µM (inactive) | GI50 (CCRF-CEM): 0.953 µM (active) | GI50 (DU-145): 28.1 µM (inactive) | GI50 (HL-60): 1.23 µM (inactive) | GI50 (HOP-62): 17 µM (inactive) | GI50 (HOP-92): 1.82 µM (inactive) | GI50 (K562): 1.56 µM (inactive) | GI50 (KM12): 18.3 µM (inactive) | GI50 (LOX IMVI): 4.95 µM (inactive) | GI50 (M14): 1.16 µM (inactive) | GI50 (MDA-N): 15.8 µM (inactive) | GI50 (Malme-3M): 3.76 µM (inactive) | GI50 (NCI-H23): 20 µM (inactive) | GI50 (OVCAR-5): 17.6 µM (inactive) | GI50 (RPMI-8226): 4.49 µM (inactive) | GI50 (SK-OV-3): 18.9 µM (inactive) | GI50 (SR): 2.87 µM (inactive) | GI50 (TK-10): 16.4 µM (inactive)

COc1ccc2c(C)cc(C)nc2n1
GI50 (ACHN): > 100 µM (inactive) | GI50 (BT-549): > 100 µM (inactive) | GI50 (CAKI-1): > 100 µM (inactive) | GI50 (CCRF-CEM): > 100 µM (inactive) | GI50 (DU-145): > 100 µM (inactive) | GI50 (HL-60): > 100 µM (inactive) | GI50 (HOP-62): > 100 µM (inactive) | GI50 (HOP-92): > 100 µM (inactive) | GI50 (K562): > 100 µM (inactive) | GI50 (KM12): > 100 µM (inactive) | GI50 (LOX IMVI): > 100 µM (inactive) | GI50 (M14): > 100 µM (inactive) | GI50 (MDA-N): > 100 µM (inactive) | GI50 (Malme-3M): > 100 µM (inactive) | GI50 (NCI-H23): > 100 µM (inactive) | GI50 (OVCAR-5): > 100 µM (inactive) | GI50 (RPMI-8226): > 100 µM (inactive) | GI50 (SK-OV-3): > 100 µM (inactive) | GI50 (SR): > 100 µM (inactive) | GI50 (TK-10): > 100 µM (inactive)

COc1cc(C2c3cc4c(cc3OC(N3CCCCC3)C2C)OCO4)cc(OC)c1O (stereo not given)
GI50 (ACHN): 8.57 µM (inactive) | GI50 (BT-549): 10.5 µM (inactive) | GI50 (CAKI-1): 12 µM (inactive) | GI50 (CCRF-CEM): 3.4 µM (inactive) | GI50 (DU-145): 19.5 µM (inactive) | GI50 (HL-60): 4.15 µM (inactive) | GI50 (HOP-62): 6.78 µM (inactive) | GI50 (HOP-92): 15 µM (inactive) | GI50 (K562): 4.06 µM (inactive) | GI50 (KM12): 5.89 µM (inactive) | GI50 (LOX IMVI): 9.77 µM (inactive) | GI50 (M14): 9.42 µM (inactive) | GI50 (MDA-N): 2.14 µM (inactive) | GI50 (Malme-3M): 4.36 µM (inactive) | GI50 (NCI-H23): 18.7 µM (inactive) | GI50 (OVCAR-5): 20.1 µM (inactive) | GI50 (RPMI-8226): 9.35 µM (inactive) | GI50 (SK-OV-3): 5.89 µM (inactive) | GI50 (SR): 4.82 µM (inactive) | GI50 (TK-10): 16.4 µM (inactive)

C=CC[C@@]1([C@H](C=C)COCc2ccc(OC)cc2)CC[C@]2(C)OC(C)(C)[C@@H](c3ccccc3)N2C1=S
GI50 (ACHN): 43 µM (inactive) | GI50 (BT-549): 40.7 µM (inactive) | GI50 (CAKI-1): > 100 µM (inactive) | GI50 (CCRF-CEM): 46.5 µM (inactive) | GI50 (DU-145): 54.5 µM (inactive) | GI50 (HL-60): 22.4 µM (inactive) | GI50 (HOP-62): 71.8 µM (inactive) | GI50 (HOP-92): 30 µM (inactive) | GI50 (K562): 27.4 µM (inactive) | GI50 (KM12): 36.9 µM (inactive) | GI50 (LOX IMVI): 40.8 µM (inactive) | GI50 (M14): 35.3 µM (inactive) | GI50 (MDA-N): 49.5 µM (inactive) | GI50 (Malme-3M): 37.6 µM (inactive) | GI50 (NCI-H23): 40.4 µM (inactive) | GI50 (OVCAR-5): 50 µM (inactive) | GI50 (RPMI-8226): 33.5 µM (inactive) | GI50 (SK-OV-3): 86.5 µM (inactive) | GI50 (SR): 73.5 µM (inactive) | GI50 (TK-10): 52.7 µM (inactive)

OCCN1CCN(c2nc(N3CCCC3)c3nc(Cl)c(NCc4ccccc4)nc3n2)CC1
GI50 (ACHN): 7.8 µM (inactive) | GI50 (BT-549): 6.84 µM (inactive) | GI50 (CAKI-1): 9.44 µM (inactive) | GI50 (CCRF-CEM): 3.8 µM (inactive) | GI50 (DU-145): 8.15 µM (inactive) | GI50 (HL-60): 3.81 µM (inactive) | GI50 (HOP-62): 3.58 µM (inactive) | GI50 (HOP-92): 5.16 µM (inactive) | GI50 (K562): 2.54 µM (inactive) | GI50 (KM12): 4.97 µM (inactive) | GI50 (LOX IMVI): 5.4 µM (inactive) | GI50 (M14): 3.03 µM (inactive) | GI50 (MDA-N): 3.7 µM (inactive) | GI50 (Malme-3M): 6.56 µM (inactive) | GI50 (NCI-H23): 14.5 µM (inactive) | GI50 (OVCAR-5): 13.1 µM (inactive) | GI50 (RPMI-8226): 2.83 µM (inactive) | GI50 (SK-OV-3): 13.7 µM (inactive) | GI50 (SR): 2.54 µM (inactive) | GI50 (TK-10): 6.85 µM (inactive)

Cc1ccc2c(O)cc(-c3cccs3)nc2n1
GI50 (ACHN): 33 µM (inactive) | GI50 (BT-549): > 100 µM (inactive) | GI50 (CAKI-1): 15.4 µM (inactive) | GI50 (CCRF-CEM): 15.3 µM (inactive) | GI50 (DU-145): 30.5 µM (inactive) | GI50 (HL-60): 2.7 µM (inactive) | GI50 (HOP-62): 37.9 µM (inactive) | GI50 (HOP-92): 57 µM (inactive) | GI50 (K562): 5.81 µM (inactive) | GI50 (KM12): 2.76 µM (inactive) | GI50 (LOX IMVI): 11.4 µM (inactive) | GI50 (M14): 6.59 µM (inactive) | GI50 (MDA-N): 1.47 µM (inactive) | GI50 (Malme-3M): 15.3 µM (inactive) | GI50 (NCI-H23): 7.71 µM (inactive) | GI50 (OVCAR-5): > 22.3 µM (inactive) | GI50 (RPMI-8226): 5.05 µM (inactive) | GI50 (SK-OV-3): 30.3 µM (inactive) | GI50 (SR): 2.05 µM (inactive) | GI50 (TK-10): > 100 µM (inactive)

O=C1C=C(Br)C(=O)C12CCc1ccccc12 (stereo not given)
GI50 (ACHN): 11.5 µM (inactive) | GI50 (BT-549): 17.9 µM (inactive) | GI50 (CAKI-1): 6.47 µM (inactive) | GI50 (CCRF-CEM): 2.66 µM (inactive) | GI50 (DU-145): 16.2 µM (inactive) | GI50 (HL-60): 2.69 µM (inactive) | GI50 (HOP-62): 39 µM (inactive) | GI50 (HOP-92): 13.5 µM (inactive) | GI50 (K562): 2.52 µM (inactive) | GI50 (KM12): 21.1 µM (inactive) | GI50 (LOX IMVI): 12.5 µM (inactive) | GI50 (M14): 12.4 µM (inactive) | GI50 (MDA-N): 16.5 µM (inactive) | GI50 (Malme-3M): 14.6 µM (inactive) | GI50 (NCI-H23): 19.7 µM (inactive) | GI50 (OVCAR-5): 18 µM (inactive) | GI50 (RPMI-8226): 3.05 µM (inactive) | GI50 (SK-OV-3): 27.4 µM (inactive) | GI50 (SR): 3.27 µM (inactive) | GI50 (TK-10): 17.8 µM (inactive)
